System: 873145-292-R-J1-PDC complex spheroid viability
Assay: Anticancer human tumor 873145-292-R-J1-PDC patient-derived renal clear cell carcinoma cell line growth inhibition [POLQ]
Details: for IC50: curve of first compound; for viability, T/C: stronger effect = lower value
How it was run: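 Growth inhibition in 3D: complex spheroids (tumor PDC, HUVEC, MSC) treated with POLQ inhibitor combinations; where Cmax unknown, highest tested concentration 10 microM, except SN-38 at 1 microM.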

[1] = second compound 0.0316 µM, first compound 0.0316 µM
[2] = second compound 0.0316 µM, first compound 0.1 µM
[3] = second compound 0.0316 µM, first compound 0.316 µM
[4] = second compound 0.0316 µM, first compound 1 µM
[5] = second compound 0.0316 µM, first compound 3.16 µM
[6] = second compound 0.0316 µM, first compound 10 µM
[7] = second compound 0.1 µM, first compound 0.0316 µM
[8] = second compound 0.1 µM, first compound 0.1 µM
[9] = second compound 0.1 µM, first compound 0.316 µM
[10] = second compound 0.1 µM, first compound 1 µM
[11] = second compound 0.1 µM, first compound 3.16 µM
[12] = second compound 0.1 µM, first compound 10 µM
[13] = second compound 0.316 µM, first compound 0.0316 µM
[14] = second compound 0.316 µM, first compound 0.1 µM
[15] = second compound 0.316 µM, first compound 0.316 µM
[16] = second compound 0.316 µM, first compound 1 µM
[17] = second compound 0.316 µM, first compound 3.16 µM
[18] = second compound 0.316 µM, first compound 10 µM
[19] = second compound 1 µM, first compound 0.0316 µM
[20] = second compound 1 µM, first compound 0.1 µM
[21] = second compound 1 µM, first compound 0.316 µM
[22] = second compound 1 µM, first compound 1 µM
[23] = second compound 1 µM, first compound 3.16 µM
[24] = second compound 1 µM, first compound 10 µM
[25] = second compound 3.16 µM, first compound 0.0316 µM
[26] = second compound 3.16 µM, first compound 0.1 µM
[27] = second compound 3.16 µM, first compound 0.316 µM
[28] = second compound 3.16 µM, first compound 1 µM
[29] = second compound 3.16 µM, first compound 3.16 µM
[30] = second compound 3.16 µM, first compound 10 µM
[31] = second compound 10 µM, first compound 0.0316 µM
[32] = second compound 10 µM, first compound 0.1 µM
[33] = second compound 10 µM, first compound 0.316 µM
[34] = second compound 10 µM, first compound 1 µM
[35] = second compound 10 µM, first compound 3.16 µM
[36] = second compound 10 µM, first compound 10 µM
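Note: spheroids exposed to compounds for 7 days before viability readout.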
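Throughout, for viability, T/C: luminescence signal used as surrogate for viable cell content; 100% = DMSO vehicle control viability.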

In the case of CC1COCCN1c1cc(-c2ccnn2C)c2ccnc(-c3ccn[nH]3)c2n1 (centres undefined) + Cc1cccc(N(C)C(=O)C2C(O)CCN2c2nc(C)cc(C(F)(F)F)c2C#N)c1, the IC50 (second compound 0.0316 µM) is reported as 1080 nM, the IC50 (second compound 0.1 µM) is reported as 1600 nM and the IC50 (second compound 0.316 µM) is reported as 1540 nM. It also gave an IC50 (second compound 1 µM) of 1530 nM, an IC50 (second compound 3.16 µM) of 987 nM and an IC50 (second compound 10 µM) of 895 nM. The viability, T/C [1] was 90.6%, the viability, T/C [2] was 79.1% and the viability, T/C [3] was 68.1%. The viability, T/C [4] was 46.1%, the viability, T/C [5] was 48.6% and the viability, T/C [6] was 43.1%. The viability, T/C [7] was 99.3%, the viability, T/C [8] was 87.7% and the viability, T/C [9] was 74.3%. It also gave a viability, T/C [10] of 54.5%, a viability, T/C [11] of 39.9% and a viability, T/C [12] of 45.4%. For the same molecule, the viability, T/C [13] was 95.1%, the viability, T/C [14] was 90.6% and the viability, T/C [15] was 69%. For the same molecule, the viability, T/C [16] was 53.3%, the viability, T/C [17] was 47% and the viability, T/C [18] was 36.1%. It also gave a viability, T/C [19] of 92.3%, a viability, T/C [20] of 80.5% and a viability, T/C [21] of 67.7%. The viability, T/C [22] was 50.4%, the viability, T/C [23] was 46.6% and the viability, T/C [24] was 44.4%. The viability, T/C [25] was 101%, the viability, T/C [26] was 88% and the viability, T/C [27] was 71.4%. The viability, T/C [28] was 47%, the viability, T/C [29] was 44.1% and the viability, T/C [30] was 40.5%. It also gave a viability, T/C [31] of 91.6%, a viability, T/C [32] of 82.9% and a viability, T/C [33] of 69%. It also gave a viability, T/C [34] of 46.5%, a viability, T/C [35] of 42% and a viability, T/C [36] of 40.2%.
CCCS(=O)(=O)Nc1ccc(F)c(C(=O)c2c[nH]c3ncc(-c4ccc(Cl)cc4)cc23)c1F + Cc1cccc(N(C)C(=O)C2C(O)CCN2c2nc(C)cc(C(F)(F)F)c2C#N)c1 was tested, and the IC50 (second compound 0.0316 µM) was > 10000 nM, the IC50 (second compound 0.1 µM) was > 10000 nM and the IC50 (second compound 0.316 µM) was > 10000 nM. The IC50 (second compound 1 µM) was > 10000 nM, the IC50 (second compound 3.16 µM) was > 10000 nM and the IC50 (second compound 10 µM) was > 10000 nM. For the same molecule, the viability, T/C [1] was 115%, the viability, T/C [2] was 110% and the viability, T/C [3] was 113%. The viability, T/C [4] was 118%, the viability, T/C [5] was 89.9% and the viability, T/C [6] was 79.3%. For the same molecule, the viability, T/C [7] was 105%, the viability, T/C [8] was 106% and the viability, T/C [9] was 90.8%. It also gave a viability, T/C [10] of 121%, a viability, T/C [11] of 105% and a viability, T/C [12] of 67.6%. The viability, T/C [13] was 117%, the viability, T/C [14] was 125% and the viability, T/C [15] was 94.4%. For the same molecule, the viability, T/C [16] was 112%, the viability, T/C [17] was 97.4% and the viability, T/C [18] was 80.6%. The viability, T/C [19] was 98.6%, the viability, T/C [20] was 102% and the viability, T/C [21] was 103%. It also gave a viability, T/C [22] of 106%, a viability, T/C [23] of 105% and a viability, T/C [24] of 68.6%. The viability, T/C [25] was 101%, the viability, T/C [26] was 111% and the viability, T/C [27] was 109%. The viability, T/C [28] was 107%, the viability, T/C [29] was 105% and the viability, T/C [30] was 83.8%. It also gave a viability, T/C [31] of 103%, a viability, T/C [32] of 101% and a viability, T/C [33] of 96.1%. For the same molecule, the viability, T/C [34] was 109%, the viability, T/C [35] was 96.8% and the viability, T/C [36] was 81.1%.
